Test results from patent US20040248232A1, “Method for treating Alzheimer's dementia” (priority 2003, published 2004).
“Also recorded” adds a separate entry of the source. Non-standard residues stand in square brackets, D forms with d. Residues, ends and D or L forms follow the SMILES beside them. *: point of attachment. Sta = CC(C)C[C@H](N)[C@@H](O)CC(=O)O; Isovaleryl = CC(C)CC(=O)*

Tests used:
[1] = tested on: β-secretase endoprotease activity in chromaffin vesicle lysate; assay: Effect of reducing agents on β-secretase endoprotease activity in chromaffin vesicles; format: biochemical, bovine; settings: 1 mM; lysed vesicles, Z*Val-Lys-Met-MCA
Method: (§1) The β-secretase endoprotease activity was identified by incubating the chromaffin vesicle lysate (2-10 μl of 10-20 mg protein/ml) with the Z★Val-Lys-Met-MCA substrate (100 μM final concentration) and detecting AMC fluorescence. The chromaffin vesicle lysate was prepared as described in Example I. The endoprotease activity was determined as a function of pH by varying the pH of the incubation solution between 3.0 to 8.0 in 0.5 pH increments. Citric acid, sodium phosphate, and Tris-HCl buffers (100 mM final concentration) were used to adjust the pH of the incubation solutions between 3.0 to 5.5, 6.0 to 7.5, and 8.0, respectively. Duplicate samples at each pH increment (100 μl each) were distributed among 22 wells in a covered microtiter well plate and incubated at 37° C. for 8 hours in a water bath.
(§2) The effect of the reducing agent dithiothreitol (DTT) on β-secretase endoprotease activity was determined using the assay described in Example III. Briefly, the lysed vesicles were incubated with the substrate Z★Val-Lys-Met-MCA in the presence or absence of 1 mM DTT and the resulting fluorescence plotted as a function of pH. Both with and without DTT, β-secretase endoprotease activity was detected and in both cases that activity had pH optimum of about 4.0 to 6.0, which is consistent with the intravesicular pH of chromaffin vesicles.

[2] = biological target: T1, Peak II β-secretase endoprotease activity (cathepsin B) (Bos taurus, UniProt P07688); assay: Protease inhibitors of β-secretase endoprotease activity in Peak II; format: biochemical, bovine; settings: for Peak II (%): % of control (no inhibitor); for inhibition of Peak II activity, in words: text summary of Table IV
T1 construct: from tissue; host or cells: bovine adrenal medulla chromaffin vesicles; Con A, Sephacryl S200 (Peak II), Mono Q (II-A, II-B)

[3] = biological target: T2, Peak I β-secretase endoprotease activity (cathepsin L) (Bos taurus, UniProt P25975); assay: Protease inhibitors of β-secretase endoprotease activity in Peak I; format: biochemical, bovine; settings: for Peak I (%): % of control (no inhibitor); for inhibition of Peak I activity, in words: text summary of Table IV; for β-secretase activity of Peak I: inhibitor at 1 μM (Example XVI)
T2 construct: from tissue; host or cells: bovine adrenal medulla chromaffin vesicles; Con A then Sephacryl S200, Peak I
T2 sequence (P25975 118-334): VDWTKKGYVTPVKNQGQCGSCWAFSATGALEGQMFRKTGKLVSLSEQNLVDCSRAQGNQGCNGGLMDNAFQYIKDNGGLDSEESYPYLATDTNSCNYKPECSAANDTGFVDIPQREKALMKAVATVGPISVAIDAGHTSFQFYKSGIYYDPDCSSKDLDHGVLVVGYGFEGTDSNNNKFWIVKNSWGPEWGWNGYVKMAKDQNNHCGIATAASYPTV
Method: The effect of the aminopeptidase M and the basic pH buffer used in the β-secretase endoprotease activity assay was determined. […] Three assays were conducted, one with aminopeptidase M in its basic pH buffer, another with the basic pH buffer but not aminopeptidase M, and a third without either the buffer or the aminopeptidase M. Briefly, the chromaffin vesicle lysate and the substrate Z★Val-Lys-Met-MCA were incubated for 30 minutes-at a specified pH and the resulting fluorescence measured. The aminopeptidase M in the basic pH buffer or:.that buffer alone (final concentration of 75 mM Tris-HCl pH 8.2) was added to the assay and incubated an additional 60 minutes at 37° C.
The protease inhibitor was added to each assay at the start of the reaction at the appropriate concentration. The extent of inhibition was expressed as a percentage of the activity without the inhibitor (control).

[4] = tested on: 27 kDa and 31 kDa cysteine protease bands of Peak I; assay: 125I-DCG-04 affinity labeling of Peak I; format: binding, bovine; settings: inhibitor 1 μM
Method: An aliquot of Peak I was incubated at room temperature with 125I-DCG-04 for 30 minutes, and the affinity labeled β-secretase was then subjected to one-dimensional SDS-PAGE followed by electrophoretic transfer of proteins to nitrocellulose membranes, and 125I-DCG-04 labeled proteins were detected with streptavidin-HRP, as described previously (Greenbaum et al. Chem. Biol. 7:569-81, 2000, Greenbaum et al., Chemistry and Biology 10, 1085-1094, 2002; Greenbaum et al., Mol. Cell. Proteomics, 1:60-68, 2002).
The 31 kDa band resembles the molecular weight of the cysteine protease cathepsin B (Barrett et al., “Handbook of Proteolytic Enzymes,” Pub. Academic Press, SanDiego, pp 609-617, 1998; and Greenbaum et al., Mol. Cell. Proteomics, 1:60-68, 2002). The selective cathepsin B inhibitor, CA-074, was used to determine whether the 27 kDa or 31 kDa bands were responsible for the β-secretase activity of Peak I (Yamamoto et al., J. Mol. Biol. 227:942-944, 1992; Gour-Salin et al., J. Med. Chem. 36:720-725, 1993; Bogyo et al., Chem Biol. 1:27-38, 2000).

[5] = tested on: β-secretase endoprotease activity in chromaffin vesicle lysate; assay: Protease inhibitors of β-secretase endoprotease activity in chromaffin vesicle lysate (Z*Val-Lys-Met-MCA cleavage, AMC fluorescence); format: biochemical, bovine; settings: for % CONTROL: pH 5.5, with aminopeptidase M, activity as % of activity without inhibitor; for inhibition of β-secretase endoprotease activity in chromaffin vesicle lysate, in words: text summary of Table II
Method: as §1
As discussed above, endoprotease cleavage between the Met-MCA bond in the Z★Val-Lys-Met-MCA substrate produces fluorescent AMC, but endoprotease cleavage between the Lys-Met or Val-Lys bonds in that substrate produces non-fluorescent Lys-Met-MCA and Met-MCA peptides. To insure that the latter two endoprotease cleavages were detected, aminopeptidase M (20 μg/ml final concentration, BOEHRINGER […]) was added to each incubation solutions to produce fluorescent AMC from the Lys-Met-MCA and Met-MCA peptides. Prior to adding the aminopeptidase M, each incubation solution was adjusted to a pH 8.3 using Tris-HCl because aminopeptidase M functions at a basic pH. A second incubation at 37° C. for 1 hour in the water bath was conducted to complete the aminopeptidase M reaction.
Upon termination of that second incubation, AMC fluorescence was assayed using a fluorometer (IDEXX fluorometer, FCA Fluorescence Concentration Analyzer, cat. no. 10-105-2, BAXTER HEALTH CARE CORP., Mundelein, Ill.) at excitation and emission wavelengths of 365 and 450 nm, respectively. Standard AMC concentrations were also measured to quantitate relative fluorescence with the molar amount (pmol) of AMC generated by the secretase. The resulting AMC fluorescence reflects the endoprotease activity in cleaving either the Met-MCA, Lys-Met. and Val-Lys bonds in the Z★Val-Lys-Met-MCA substrate.
as §2
The effect of the aminopeptidase M and the basic pH buffer used in the β-secretase endoprotease activity assay was determined. The assay was conducted as described in Example VIII with DTT. Three assays were conducted, one with aminopeptidase M in its basic pH buffer, another with the basic pH buffer but not aminopeptidase M, and a third without either the buffer or the aminopeptidase M. Briefly, the chromaffin vesicle lysate and the substrate Z★Val-Lys-Met-MCA were incubated for 30 minutes-at a specified pH and the resulting fluorescence measured. The aminopeptidase M in the basic pH buffer or:.that buffer alone (final concentration of 75 mM Tris-HCl pH 8.2) was added to the assay and incubated an additional 60 minutes at 37° C. […] The assay conducted with aminopeptidase M and its basic pH buffer and that of the control assay having just the basic pH buffer produced approximately the same amount of fluorescence.
The effect of various protease inhibitors on β-secretase endoprotease activity in the lysate was determined at the pH optimum 5.5 in the assay described in Example IX containing aminopeptidase M. Protease inhibitors specific for various protease classes were used. […]

[6] = tested on: cathepsin activity in brain; settings: administered to animals; cited from earlier work
[7] = tested on: primary chromaffin cell cultures; assay: Aβ-peptide secretion by chromaffin cells (RIA of Aβ1-40 in media); format: cell-based; settings: 50 mM, 15 minutes
Method: Primary chromaffin cell cultures containing approximately 2 million cells in each culture were produced using established methods (Hook et al., ibid.; and Tezapsidis et al., ibid.). Exocytosis of the contents of the vesicles in such cells was induced by exposing the cells to KCl (50 mM) or nicotine (10 μM) for 15 minutes.

## O[C@H](CS)[C@H](O)CS (racemic) [DTT, dithiothreitol]
[1]
  increase in the β-secretase endoprotease activity: approximately 5 fold

## c1cnc2c(c1)ccc1cccnc12 [1,10 Phenanthroline]
[2]; inhibitor 500 μM
  Peak II (%): 72%
[2]
  inhibition of Peak II activity, in words: only slightly inhibited
[3]; inhibitor 500 μM
  Peak I (%): 31%
[3]
  inhibition of Peak I activity, in words: significantly inhibited

## CCCNC(=O)[C@H]1O[C@@H]1C(=O)N[C@H](C(=O)N1CCC[C@H]1C(=O)O)[C@@H](C)CC [CA-074]
[4]
  125I-DCG-04 labeling of Peak I bands in the presence of the inhibitor: labeling of only the 27 kDa band
[3]
  β-secretase activity of Peak I: not affected

## CC(C)C[C@H](NC(=O)[C@@H](NC(=O)N[C@@H](Cc1ccccc1)C(=O)O)[C@@H]1CCN=C(N)N1)C(=O)N[C@H](C=O)Cc1ccccc1 [Chymostatin]
[2]; inhibitor 10 μM
  Peak II (%): 35%
[2]
  inhibition of Peak II activity, in words: maximally inhibited
[5]; inhibitor 10 μM
  % CONTROL: 11%
[5]
  inhibition of β-secretase endoprotease activity in chromaffin vesicle lysate, in words: greatly inhibited
[3]; inhibitor 10 μM
  Peak I (%): 0%
[3]
  inhibition of Peak I activity, in words: maximally inhibited

## CC(C)CCNC(=O)[C@H](CC(C)C)NC(=O)[C@H]1O[C@@H]1C(=O)O [E64c]
[6]
  cathepsin activity in brain: effectively block
[2]; inhibitor 10 μM
  Peak II (%): 0%
[2]
  inhibition of Peak II activity, in words: maximally inhibited; also recorded: completely inhibited
[5]; inhibitor 10 μM
  % CONTROL: 0%
[5]
  inhibition of β-secretase endoprotease activity in chromaffin vesicle lysate, in words: completely inhibited
[3]; inhibitor 10 μM
  Peak I (%): 0%
[3]
  β-secretase activity of Peak I: completed inhibited
  inhibition of Peak I activity, in words: maximally inhibited; also recorded: completely inhibited

## O=C(O)CN(CCN(CC(=O)O)CC(=O)O)CC(=O)O [EDTA, ethylenediaminetetraacetic acid]
[2]; inhibitor 1 mM
  Peak II (%): 138%
[5]; inhibitor 1 mM
  % CONTROL: 100%
[3]; inhibitor 1 mM
  Peak I (%): 99%

## O=C(O)CN(CCOCCOCCN(CC(=O)O)CC(=O)O)CC(=O)O [EGTA]
[2]; inhibitor 1 mM
  Peak II (%): 142%
[5]; inhibitor 1 mM
  % CONTROL: 99%
[3]; inhibitor 1 mM
  Peak I (%): 108%

## [Cl-].[K+] [KCl, potassium chloride]
[7]
  increase in the concentration of Aβ1-40 peptide in the media relative to control media: approximately 350 fold

## CC(=O)N[C@@H](CC(C)C)C(=O)N[C@@H](CC(C)C)C(=O)N[C@H](C=O)CCCNC(=N)N [Leupeptin]
[2]; inhibitor 100 μM
  Peak II (%): 0%
[2]
  inhibition of Peak II activity, in words: maximally inhibited; also recorded: completely inhibited
[5]; inhibitor 100 μM
  % CONTROL: 0%
[5]
  inhibition of β-secretase endoprotease activity in chromaffin vesicle lysate, in words: completely inhibited
[3]; inhibitor 100 μM
  Peak I (%): 0%
[3]
  inhibition of Peak I activity, in words: maximally inhibited; also recorded: completely inhibited

## O=S(=O)(F)Cc1ccccc1 [PMSF, phenylmethylsulfonyl fluoride]
[2]
  inhibition of Peak II activity, in words: did not significantly inhibit; also recorded: only slightly inhibited
[5]; inhibitor 100 μM
  % CONTROL: 58%
[5]
  inhibition of β-secretase endoprotease activity in chromaffin vesicle lysate, in words: significantly inhibited
[3]
  inhibition of Peak I activity, in words: did not significantly inhibit; also recorded: only slightly inhibited

## CC(C)CC(=O)N[C@H](C(=O)N[C@H](C(=O)N[C@@H](CC(C)C)[C@@H](O)CC(=O)N[C@@H](C)C(=O)N[C@@H](CC(C)C)[C@@H](O)CC(=O)O)C(C)C)C(C)C [Pepstatin A] (Isovaleryl-VV[Sta]A[Sta]-OH)
[2]; inhibitor 100 μM
  Peak II (%): 132%
[2]
  inhibition of Peak II activity, in words: did not significantly inhibit; also recorded: increased the activity
[5]; inhibitor 10 μM
  % CONTROL: 78%
[5]
  inhibition of β-secretase endoprotease activity in chromaffin vesicle lysate, in words: slightly inhibited
[3]; inhibitor 100 μM
  Peak I (%): 85%
[3]
  inhibition of Peak I activity, in words: did not significantly inhibit; also recorded: slightly inhibited

## O=C(O)c1cc[c]([Hg][OH])cc1 [pHMB]
[2]; inhibitor 1 mM
  Peak II (%): 68%
[2]
  inhibition of Peak II activity, in words: slightly inhibited; also recorded: inhibited
[5]; inhibitor 1 mM
  % CONTROL: 35%
[5]
  inhibition of β-secretase endoprotease activity in chromaffin vesicle lysate, in words: inhibited
[5]; listed as PHMB
  inhibition of β-secretase endoprotease activity in chromaffin vesicle lysate, in words: greatly inhibited
[3]; inhibitor 1 mM
  Peak I (%): 67%
[3]
  inhibition of Peak I activity, in words: slightly inhibited; also recorded: inhibited
